Data on four molecules can be found in patent publication US5654436A, “2-substituted benzimidazole derivatives” (American Home Products Corporation, priority 1995, dated 1997).

Read-outs that look alike come from different tables or passages of the source.

The subject of the test is Porcine Smooth Muscle Cell. Kind of test: Inhibition of smooth muscle cell proliferation (3H-thymidine, serum or PDGF stimulated). In kind it is cell-based. The settings on record: Sus scrofa, porcine aortic smooth muscle cells, 24-36 hours; for inhibition at 10 µM: read-out: Porcine Smooth Muscle Cell Antiproliferation % Inhibition at x Concentration, Serum. How it is done:
The ability of the compounds of the present invention to inhibit smooth muscle cell proliferation was established using isolated porcine nortic smooth muscle cells in a modification of the procedure of Casteliot et al. J. Biol. Chem 257(19) 11256 (1982), as follows:
Fresh porcine aortas, scrupulously cleansed of fatty tissue, are rinsed in sterile phosphate-buffered saline with 2% antibiotic-antimycotic (100×) liquid ( 10,000 units of penicillin (base), 10,000 μg of streptomycin (base), and 25 μg of amphotericin B/mL utilizing penicillin G (sodium salt), streptomycin sulfate, and amphotericin B as Fungizone® in 0.85% saline, available from Gibco Laboratories, Grand Island Biological Co., Grand Island, N.Y.). The tissue is then digested in 10-15 mL of an enzyme solution containing collagerinse type I, 165 U/mL; elastase type III, 15 U/mL; BSA, 2 mg/mL; and soybean trypsin inhibitor, 0.375 mg/mL, followed by incubation at 37° C. under 5% CO2 atmosphere for 10 to 15 minutes. After this treatment, the outer surface adventitia is removed by peeling with a forceps. The aorta is then longitudinally cut and laid open and the endothelial layer is removed by scraping.
The medial layer of cells is rinsed in the enzyme solution, and placed in a new 100 mm dish with 10 mL of enzyme solution. The medial layer of cells is minced using a fine pair of scissors and digested for 2-3 hours at 37° C. in 30 mL of fresh enzyme solution. After digestion, the medial tissue is homogenized using a sterile Pasteur pipette with a fire polished tip or an Eppendorf pipetter with a 200-1000 gL sterile pipette tip. The suspension is then centrifuged for 10 minutes at 8000 rpm and the pellet is suspended in 4-6 mL of fresh enzyme solution and plated onto 4-6 100 mm flasks with vented caps. The cells are then allowed to grow to confluence and split using 0.25% trypsin. The cells are evaluated for purity and overall quality using antibody to SMC actin.
The cells are assayed in early passage (generally passage 3-7) at sub-confluent conditions. Cultures are grown in 16 mm (24 well) multi-well culture dishes in media 199 supplemented with 10% fetal bovine serum and 2% antibiotic/antimycotic. At subconfluence, the cells are placed in a defined serum free, lymphocyte medium (AIM-V; Gibeo) for 24-48 hours prior to initiating the experimental protocol.
The standard test procedure is initiated by addition of the test compound, ^3 H-thymidine and serum or a specific growth factor to the serum deprived synchronized cells. Growth factor and serum stimulations are optimized for each cell type. The test compounds are added to each well at 50 fold dilution (20 μL/well) and the plates are incubated for 24-36 hours at 37° C. in 5% CO2 atmosphere. Test compounds are dissolved in 50% ethanol and assayed at 1, 10, and 100 μM. As a control, RG 50872 (Bilder, G. A.; et al., Am. J. Cell Physiol., 1991; 260: C721) is routinely assayed under the conditions of each cell preparation at a concentration of 5 μM.
At the completion of the experiment, the plates are placed on ice, washed three times with ice cold PBS and incubated in ice cold 10% trichloroacetic acid (TCA) for 30 minutes to remove acid soluble proteins. Each solution is transferred to a scintillation vial containing 0.4N HCl (500 μL/vial to neutralize NaOH) and each well is rinsed two times with water (500 μL) for a total volume of 2 mL/vial.
Data is quantitated by subjecting the vials to a scintillation counter, in triplicate, for both control and experimental samples. Control (100%) data is obtained from maximally stimulated cells, as the result of growth factor or serum stimulation. Experimental data is obtained from cells maximally stimulated with growth factor or serum and treated with a test compound. (The platelet-derived growth factor used in the assay was human recombinant PDGF-AB purchased from Upstate Biotechnology Inc., Lake Placid, N.Y.). Data is expressed as a percent of control from which IC50 s are determined.

Setting [1] is: human recombinant PDGF-AB stimulated, read-out: Porcine Smooth Muscle Cell Antiproliferation IC50, PDGF.

As for `Clc1ccc(Cn2c(-c3ccccn3)nc3ccccc32)cc1Cl` [Example 1, 1-(3,4-Dichiorobenzyl)-2-pyridin-2-yl-1H-benzoimidazole], the IC50 under setting [1] stood at 4400 nM. Further, the inhibition at 10 µM (serum stimulated) turned out to be 39.8%.

Turning to `CCCc1nc2cc([N+](=O)[O-])ccc2n1Cc1ccc(C(=O)OCC)cc1` [Example 4, 4-(5-Nitro-2-propyl-benzoimidazol-1-ylmethyl)-benzoic acid ethyl ester], the IC50 runs as follows: under setting [1], 760 nM; (serum stimulated, read-out: Porcine Smooth Muscle Cell Antiproliferation IC50, Serum) 660 nM.

Consider `COC(=O)c1ccc(Cn2c(-c3ccccn3)nc3ccccc32)cc1` [Example 2, 4-[2-(Pyridin-2-yl)-benzoimidazol-1-ylmethyl]-benzoic acid methyl ester], for which, under setting [1], the IC50 was 1100 nM. Also, under “serum stimulated”, the inhibition at 10 µM stood at 38.4%.

On to `COC(=O)c1ccc(Cn2c(C(F)(F)F)nc3cc(C)c(C)cc32)cc1` [Example 3, 4-(5,6-Dimethyl-2-trifluoromethyl-benzoimidazol-1-ylmethyl)-benzoic acid methyl ester], for which the IC50 under setting [1] was 2470 nM. The inhibition at 10 µM (serum stimulated) amounted to 41.3%.
